The values that follow come from patent US9840498B2, “Substituted quinazolin-4-one derivatives” (NOVARTIS AG, priority 2013, dated 2017).

The target in the assay is PI3K delta (Homo sapiens (Human), UniProt O00329). Description: Biochemical assay for PI3Kdelta (Adapta TR-FRET format). Conditions: enzymatic assay. The text has this: For the enzymatic assays, the preparation of PI3K gene constructs, protein expression and purification for HTS are described in WO2012/004299. […] The TR-FRET Adapta™ Universal Kinase Assay Kit was purchased from Invitrogen Corporation (Carlsbad/CA, USA) (Cat. No. PV5099). The kit contains the following reagents: Adapta Eu-anti-ADP Antibody (Europium labeled anti-ADP antibody in HEPES buffered saline, Cat. No. PV5097), Alexa Fluor® 647-labeled ADP tracer (Alexa Fluor® 647-labeled ADP tracer in HEPES buffered saline, Cat. No. PV5098), proprietary TR-FRET dilution buffer pH 7.5 (Cat. No. PV3574). PIK3CD substrate Phosphatidylinositol was obtained from Invitrogen (vesicules consisting of 2 mM PI in 50 mM HEPES pH7.5; Cat. No. PV5371). PIK3CG substrate Phosphatidylinositol-4,5-bisphosphate (PIP(4,5)2 was obtained from Invitrogen (PIP2:PS large unilamellar vesicules consisting of 1 mM PI P2: 19 mM PS in 50 mM HEPES pH7.5, 3 mM MgCl2, 1 mM EGTA; Cat. No. PV5100). Time-Resolved Fluorescence Resonance Energy Transfer (TR-FRET) is a technology based on energy transfer between two adjacent dyes, from an excited electron in one dye (the donor) to an electron of an adjacent dye (the acceptor) through resonance, then released as a photon. This energy transfer is detected by an increase in the fluorescence emission of the acceptor, and a decrease in the fluorescence emission of the donor. TR-FRET assays for protein kinases use a long-lifetime lanthanide Terbium or Europium chelates as the donor species which overcome interference from compound autofluorescence or light scatter from precipitated compounds, by introducing a delay after excitation by a flashlamp excitation source. Results are often expressed as a ratio of the intensities of the acceptor and donor fluorophores. The ratiometric nature of such a value corrects for differences in assay volumes between wells, as well as corrects for quenching effects due to colored compounds. The Adapta™ assay can be divided into two phases: a kinase reaction phase and an ADP detection phase. In the kinase reaction phase, all kinase reaction components are added to the well and the reaction is allowed to incubate for a set period of time specific for each kinase. After the reaction, a detection solution of Eu-labeled anti-ADP antibody, Alexa Fluor® 647-labeled ADP tracer, and EDTA (to stop the kinase reaction) are added to the assay well. ADP formed by the kinase reaction will displace the Alexa Fluor® 647-labeled ADP tracer from the antibody, resulting in a decrease in TR-FRET signal. In the presence of an inhibitor, the amount of ADP formed by the kinase reaction is reduced, and the resulting intact antibody-tracer interaction maintains a high TR-FRET signal. In the Adapta™ assay, the donor (Europium-anti-ADP antibody) is excited at 340 nm and will transfer its energy to the acceptor (Alexa Fluor® 647-labeled ADP tracer). The emission from the Alexa Fluor® 647 can be monitored with a filter centered at 665 nm because it is located between the emission peaks of the donor, which is measured at 615/620 nm. 50 nL of compound dilutions were dispensed onto white 384-well small volume polystyrene plate as described in section 2.2. Then 5 μL of PI3Kgamma and PI3Kdelta and lipid substrate (PI or PIP2:PS) followed by 5 μL of ATP (final assay volume 10 μL) are incubated at RT. […] Reactions were stopped with 5 μL of a mixture of EDTA containing the Eu-labeled anti-ADP antibody and the Alexa Fluor® 647-labeled ADP tracer in TR-FRET dilution buffer (proprietary to IVG). Plates are read 15 to 60 mins later in a Synergy2 reader using an integration time of 0.4 seconds and a delay of 0.05 seconds. […] The control for the 0% inhibition was given by the solvent vehicle of the compounds (90% DMSO in H2O). Data are analyzed using Excel fit software or Graphpad Prism. EC50 values were derived by fitting a sigmoidal dose-response curve to a plot of assay readout over inhibitor concentration. […]
Chain of PI3K delta (O00329 2-1044): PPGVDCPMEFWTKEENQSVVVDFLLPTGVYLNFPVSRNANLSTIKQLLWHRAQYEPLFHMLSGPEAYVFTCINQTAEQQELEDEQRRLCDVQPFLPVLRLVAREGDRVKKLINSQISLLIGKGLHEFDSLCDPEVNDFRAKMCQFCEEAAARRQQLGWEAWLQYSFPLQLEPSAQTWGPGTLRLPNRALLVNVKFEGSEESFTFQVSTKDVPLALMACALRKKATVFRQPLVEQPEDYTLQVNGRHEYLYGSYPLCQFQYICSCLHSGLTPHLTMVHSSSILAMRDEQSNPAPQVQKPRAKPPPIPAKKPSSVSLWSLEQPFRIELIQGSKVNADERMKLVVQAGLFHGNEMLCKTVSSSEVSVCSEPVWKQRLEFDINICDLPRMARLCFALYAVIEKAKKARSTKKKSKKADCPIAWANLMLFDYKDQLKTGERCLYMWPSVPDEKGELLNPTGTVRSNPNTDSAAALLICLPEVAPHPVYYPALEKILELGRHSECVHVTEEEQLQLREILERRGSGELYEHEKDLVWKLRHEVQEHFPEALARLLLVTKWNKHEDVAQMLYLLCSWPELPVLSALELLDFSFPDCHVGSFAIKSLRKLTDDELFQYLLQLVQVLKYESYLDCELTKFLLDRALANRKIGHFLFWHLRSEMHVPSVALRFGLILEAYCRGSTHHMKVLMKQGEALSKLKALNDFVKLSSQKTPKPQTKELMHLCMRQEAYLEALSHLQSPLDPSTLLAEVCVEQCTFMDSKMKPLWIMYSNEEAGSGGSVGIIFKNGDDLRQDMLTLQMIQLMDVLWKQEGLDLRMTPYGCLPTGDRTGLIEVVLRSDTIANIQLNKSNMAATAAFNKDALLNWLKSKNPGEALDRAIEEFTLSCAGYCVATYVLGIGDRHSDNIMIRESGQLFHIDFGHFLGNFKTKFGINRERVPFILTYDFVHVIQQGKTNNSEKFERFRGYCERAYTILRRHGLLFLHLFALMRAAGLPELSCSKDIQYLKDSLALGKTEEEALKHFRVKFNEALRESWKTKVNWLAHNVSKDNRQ
Chain of PI3K delta (P27986 461-568 partner): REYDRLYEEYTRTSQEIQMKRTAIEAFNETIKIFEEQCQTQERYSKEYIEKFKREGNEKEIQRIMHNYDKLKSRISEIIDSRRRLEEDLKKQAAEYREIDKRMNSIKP
Background: TR-FRET usually uses a lanthanide donor and a delayed reading to cut background.
Broadly, the IC50 is the concentration that gives 50% inhibition. For `Cc1nc(N)nc(N2C[C@@H](O)C[C@H]2c2nc3ccc(F)c(-c4cnn(C)c4)c3c(=O)n2-c2ccccc2)c1C#N` [Example 1, 2-Amino-4-((2S,4S)-2-(6-fluoro-5-(1-methyl-1H-pyrazol-4-yl)-4-oxo-3-phenyl-3,4-dihydroquinazolin-2-yl)-4-hydroxypyrrolidin-1-yl)-6-methylpyrimidine-5-carbonitrile], the half-maximal inhibitory concentration (IC50) stood at 8 nM.

Turning to `COc1ncc(-c2cccc3nc([C@@H]4CCCN4c4ncnc(N)c4C#N)n(-c4ccccc4)c(=O)c23)cn1` [Example 3, (S)-4-Amino-6-(2-(5-(2-methoxypyrimidin-5-yl)-4-oxo-3-phenyl-3,4-dihydroquinazolin-2-yl)pyrrolidin-1-yl)pyrimidine-5-carbonitrile], the IC50 was determined as 8 nM.

For `COc1ncc(-c2cccc3nc([C@@H]4CCCN4c4nc(N)nc(C)c4C#N)n(-c4ccccc4)c(=O)c23)cn1` [Example 4, (S)-2-Amino-4-(2-(5-(2-methoxypyrimidin-5-yl)-4-oxo-3-phenyl-3,4-dihydroquinazolin-2-yl)pyrrolidin-1-yl)-6-methylpyrimidine-5-carbonitrile], the IC50 stood at 6 nM.

As to `Cn1cc(-c2c(F)ccc3nc([C@@H]4CCCN4c4ncnc(N)c4C#N)n(-c4ccccc4)c(=O)c23)cn1` [Example 5, (S)-4-Amino-6-(2-(6-fluoro-5-(1-methyl-1H-pyrazol-4-yl)-4-oxo-3-phenyl-3,4-dihydroquinazolin-2-yl)pyrrolidin-1-yl)pyrimidine-5-carbonitrile], the IC50 came to 4 nM.

Turning to `Cc1nc(N)nc(N2CCC[C@H]2c2nc3ccc(F)c(-c4cnn(C)c4)c3c(=O)n2-c2ccccc2)c1C#N` [Example 6, (S)-2-Amino-4-(2-(6-fluoro-5-(1-methyl-1H-pyrazol-4-yl)-4-oxo-3-phenyl-3,4-dihydroquinazolin-2-yl)pyrrolidin-1-yl)-6-methylpyrimidine-5-carbonitrile], the IC50 came to 9 nM.

Turning to `COc1ncc(-c2c(F)ccc3nc([C@@H]4C[C@H](O)CN4c4nc(N)nc(C)c4C#N)n(-c4ccccc4)c(=O)c23)cn1` [Example 7, 2-Amino-4-((2S,4S)-2-(6-fluoro-5-(2-methoxypyrimidin-5-yl)-4-oxo-3-phenyl-3,4-dihydroquinazolin-2-yl)-4-hydroxypyrrolidin-1-yl)-6-methylpyrimidine-5-carbonitrile], the IC50 is 6 nM.

Regarding `Cn1cc(-c2c(F)ccc3nc([C@@H]4C[C@H](O)CN4c4ncnc(N)c4C#N)n(-c4ccccc4)c(=O)c23)cn1` [Example 8, 4-Amino-6-((2S,4S)-2-(6-fluoro-5-(1-methyl-1H-pyrazol-4-yl)-4-oxo-3-phenyl-3,4-dihydroquinazolin-2-yl)-4-hydroxypyrrolidin-1-yl) pyrimidine-5-carbonitrile], the IC50 is 14 nM.

Consider `COc1ncc(-c2c(F)ccc3nc([C@@H]4C[C@H](O)CN4c4nc(N)nc(C)c4C#N)n(-c4ccccc4)c(=O)c23)s1` [Example 9, 2-Amino-4-((2S,4S)-2-(6-fluoro-5-(2-methoxythiazol-5-yl)-4-oxo-3-phenyl-3,4-dihydroquinazolin-2-yl)-4-hydroxypyrrolidin-1-yl)-6-methylpyrimidine-5-carbonitrile], for which the IC50 turned out to be 8 nM.

`CO[C@H]1C[C@@H](c2nc3cccc(-c4cnn(C)c4)c3c(=O)n2-c2ccccc2)N(c2nc(N)nc(C)c2C#N)C1` [Example 10, 2-Amino-4-((2S,4S)-4-methoxy-2-(5-(1-methyl-1H-pyrazol-4-yl)-4-oxo-3-phenyl-3,4-dihydroquinazolin-2-yl)pyrrolidin-1-yl)-6-methylpyrimidine-5-carbonitrile]: the IC50 turned out to be 6 nM.

`CO[C@H]1C[C@@H](c2nc3cccc(-c4cnn(C)c4)c3c(=O)n2-c2ccccc2)N(c2nc(N)nc3[nH]cnc23)C1` [Example 11, 2-((2S,4S)-1-(2-Amino-9H-purin-6-yl)-4-methoxypyrrolidin-2-yl)-5-(1-methyl-1H-pyrazol-4-yl)-3-phenylquinazolin-4(3H)-one]: the IC50 worked out at 45 nM.

With `COc1ncc(-c2cccc3nc([C@@H]4C[C@H](OC)CN4c4nc(N)nc(C)c4C#N)n(-c4ccccc4)c(=O)c23)cn1` [Example 12, 2-Amino-4-((2S,4S)-4-methoxy-2-(5-(2-methoxypyrimidin-5-yl)-4-oxo-3-phenyl-3,4-dihydroquinazolin-2-yl)pyrrolidin-1-yl)-6-methylpyrimidine-5-carbonitrile], the IC50 turned out to be 5 nM.

As for `Cc1nc(N)nc(N2CCC[C@H]2c2nc3cccc(-c4cnn(C)c4)c3c(=O)n2-c2ccccc2)c1C#N` [Example 13, (S)-2-Amino-4-methyl-6-(2-(5-(1-methyl-1H-pyrazol-4-yl)-4-oxo-3-phenyl-3,4-dihydroquinazolin-2-yl)pyrrolidin-1-yl)pyrimidine-5-carbonitrile], the IC50 stood at 7 nM.

With `Cc1ccccc1-n1c([C@@H]2CCCN2c2ncnc(N)c2C#N)nc2cccc(-c3cnn(C)c3)c2c1=O` [Example 14, (S)-4-Amino-6-(2-(5-(1-methyl-1H-pyrazol-4-yl)-4-oxo-3-(otolyl)-3,4-dihydroquinazolin-2-yl)pyrrolidin-1-yl)pyrimidine-5-carbonitrile], the IC50 came out at 74 nM.

For `Cn1cnc(-c2cccc3nc([C@@H]4CCCN4c4ncnc(N)c4C#N)n(-c4ccccc4)c(=O)c23)c1` [Example 15, (S)-4-Amino-6-(2-(5-(1-methyl-1H-imidazol-4-yl)-4-oxo-3-phenyl-3,4-dihydroquinazolin-2-yl)pyrrolidin-1-yl)pyrimidine-5-carbonitrile], the IC50 is greater than 10000 nM.

`Cc1nc(N)nc(N2C[C@@H](O)C[C@H]2c2nc3cccc(-c4cnn(C)c4)c3c(=O)n2-c2ccccc2)c1C#N` [Example 16, 2-Amino-4-((2S,4S)-4-hydroxy-2-(5-(1-methyl-1H-pyrazol-4-yl)-4-oxo-3-phenyl-3,4-dihydroquinazolin-2-yl)pyrrolidin-1-yl)-6-methylpyrimidine-5-carbonitrile]: the IC50 came out at 7 nM.

Take `Cc1nc(N)nc(N2CCC[C@H]2c2nc3cccc(-c4cncnc4)c3c(=O)n2-c2ccccc2)c1C#N` [Example 17, (S)-2-Amino-4-methyl-6-(2-(4-oxo-3-phenyl-5-(pyrimidin-5-yl)-3,4-dihydroquinazolin-2-yl)pyrrolidin-1-yl)pyrimidine-5-carbonitrile]: the IC50 was determined as 21 nM.

As to `COc1cncc(-c2cccc3nc([C@@H]4CCCN4c4nc(N)nc(C)c4C#N)n(-c4ccccc4)c(=O)c23)c1` [Example 18, (S)-2-Amino-4-(2-(5-(5-methoxypyridin-3-yl)-4-oxo-3-phenyl-3,4-dihydroquinazolin-2-yl)pyrrolidin-1-yl)-6-methylpyrimidine-5-carbonitrile], the IC50 is 14 nM.

For the molecule `Cc1ncc(-c2cccc3nc([C@@H]4CCCN4c4nc(N)nc(C)c4C#N)n(-c4ccccc4)c(=O)c23)cn1` [Example 19, (S)-2-Amino-4-methyl-6-(2-(5-(2-methylpyrimidin-5-yl)-4-oxo-3-phenyl-3,4-dihydroquinazolin-2-yl)pyrrolidin-1-yl)pyrimidine-5-carbonitrile], the IC50 amounted to 17 nM.

On to `Cc1nc(N)nc(N2CCC[C@H]2c2nc3cccc(-c4cccnc4)c3c(=O)n2-c2ccccc2)c1C#N` [Example 20, (S)-2-Amino-4-methyl-6-(2-(4-oxo-3-phenyl-5-(pyridin-3-yl)-3,4-dihydroquinazolin-2-yl)pyrrolidin-1-yl)pyrimidine-5-carbonitrile], for which the IC50 came out at 15 nM.
